Source: patent publication US20110245179A1, “Composition for Prevention or Treatment of Heart Failure” (priority 2008, published 2011)

Assays:
cardiac myocytes = test: Measurement of myocardial contractility (video-based edge detection); format: cell-based, Sprague-Dawley (SD) rat; settings: 100 nM for 30 minutes
Source text: The sequence of a peptide inhibitor was designed based on the experiment of Daria Mochly-Rosen^11-13. The amino acid sequences of the protein kinase C ζ (PKCζ) inhibitor are described as SEQ ID NO: 1 and SEQ ID NO: 2. They are called the pseudosubstrate region. In contrast, the amino acid sequence of the PKCα inhibitor is QLVIAN. Each peptide inhibitor is linked at the amino-end with the TAT peptide YGRKKRRQRRR via the GGG bridge. As a normal group for comparison, a peptide comprising the TAT amino acid sequence was used. Cardiac myocytes isolated from 10-week-old Sprague-Dawley (SD) rat were used to test the efficiency of the peptide inhibitor. […]
The cardiac myocytes were isolated based on the modification of the Ren's method^14. 10-week-old male SD rats (250-300 g) were used for the experiment. After injecting heparin (50 unit), the test animal was anesthetized with isoflurane and the heart was taken out immediately. The heart was connected to a pump and Tyrode's buffer [137 mM NaCl, 5.4 mM KCl, 1 mM MgCl2, 10 mM glucose, 10 mM HEPES, 10 mM 2,3-butanedione monoxime and 5 mM taurine (Sigma), pH 7.4] at 37° C. was supplied through the coronary artery. After removing blood from the heart by pumping for 5 minutes, intercellular adhesion molecules were digested by perfusing enzyme solution [collagenase type B (0.35 U/mL, Roche), hyaluronidase (0.1 mg/mL, Sigma)] through the coronary artery. After sufficient digestion through perfusion for 20 minutes, the heart was stabilized and protected from the enzymes in 0.5% BSA solution. In all the experiments, only the rod-shaped, healthy cardiac myocytes with a distinct striation pattern were used.
The entire culture procedure was carried out in a class II flow hood. Culture dishes were precoated for 1 hour with 40 µg/mL mouse laminin (BD Biosciences) at room temperature. The isolated cardiac myocytes were cultured in Dulbecco's minimal essential medium (HyClone) containing 50 units/mL penicillin, 50 μg/mL streptomycin, 5 mM taurine, […] and […]. The cardiac myocytes were stabilized for 2 hours in a 5% CO2 incubator at 37° C., and then myocardial contractility was measured.
Myocardial contractility was measured using a video-based edge detection system (IonOptix; Milton, Mass.)^15. The cultured cardiac myocytes were placed on a over slip and observed under an inverted microscope (Nikon Eclipse TE-100F). To the cardiac myocytes, Tyrode's buffer (137 mM NaCl, 5.4 mM KCl, 1 mM MgCl2, 10 mM glucose and 10 mM HEPES, pH 7.4) was continuously supplied (at 37° C., at a rate of ˜1 mL/min). The cells were stimulated with a voltage of 30 V at 1 Hz. A STIM-AT stimulator/thermostat was used. […] The motion was recorded at every 8.3 ms. The recorded motion of the cardiac myocytes was analyzed with the soft-edge software (IonOptix).

PKCδ = PKCδ (Homo sapiens, UniProt Q05655); settings: cited from earlier work
PKCβ = PKCβ (Homo sapiens, UniProt P05771); settings: cited from earlier work
PKCζ = biological target: T1, PKCζ (Homo sapiens, UniProt Q05513); settings: cited from earlier work
T1 sequence (Q05513 1-592): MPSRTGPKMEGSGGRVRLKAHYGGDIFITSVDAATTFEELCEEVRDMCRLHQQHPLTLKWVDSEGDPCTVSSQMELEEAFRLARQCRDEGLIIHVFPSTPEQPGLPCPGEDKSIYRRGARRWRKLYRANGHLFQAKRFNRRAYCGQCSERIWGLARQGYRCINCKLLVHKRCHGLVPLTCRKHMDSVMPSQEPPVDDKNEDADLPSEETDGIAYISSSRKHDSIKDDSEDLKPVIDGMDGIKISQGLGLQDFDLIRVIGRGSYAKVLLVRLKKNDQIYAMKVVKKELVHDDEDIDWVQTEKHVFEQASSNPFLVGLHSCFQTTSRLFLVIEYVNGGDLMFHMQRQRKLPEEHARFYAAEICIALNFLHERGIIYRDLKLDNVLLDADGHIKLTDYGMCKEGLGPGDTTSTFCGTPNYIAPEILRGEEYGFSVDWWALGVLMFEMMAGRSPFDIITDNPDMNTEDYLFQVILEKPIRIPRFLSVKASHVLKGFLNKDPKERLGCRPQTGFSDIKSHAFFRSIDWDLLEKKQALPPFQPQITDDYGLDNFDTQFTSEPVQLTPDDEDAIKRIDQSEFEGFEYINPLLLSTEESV

Chain of PKCδ (Q05655 whole entry): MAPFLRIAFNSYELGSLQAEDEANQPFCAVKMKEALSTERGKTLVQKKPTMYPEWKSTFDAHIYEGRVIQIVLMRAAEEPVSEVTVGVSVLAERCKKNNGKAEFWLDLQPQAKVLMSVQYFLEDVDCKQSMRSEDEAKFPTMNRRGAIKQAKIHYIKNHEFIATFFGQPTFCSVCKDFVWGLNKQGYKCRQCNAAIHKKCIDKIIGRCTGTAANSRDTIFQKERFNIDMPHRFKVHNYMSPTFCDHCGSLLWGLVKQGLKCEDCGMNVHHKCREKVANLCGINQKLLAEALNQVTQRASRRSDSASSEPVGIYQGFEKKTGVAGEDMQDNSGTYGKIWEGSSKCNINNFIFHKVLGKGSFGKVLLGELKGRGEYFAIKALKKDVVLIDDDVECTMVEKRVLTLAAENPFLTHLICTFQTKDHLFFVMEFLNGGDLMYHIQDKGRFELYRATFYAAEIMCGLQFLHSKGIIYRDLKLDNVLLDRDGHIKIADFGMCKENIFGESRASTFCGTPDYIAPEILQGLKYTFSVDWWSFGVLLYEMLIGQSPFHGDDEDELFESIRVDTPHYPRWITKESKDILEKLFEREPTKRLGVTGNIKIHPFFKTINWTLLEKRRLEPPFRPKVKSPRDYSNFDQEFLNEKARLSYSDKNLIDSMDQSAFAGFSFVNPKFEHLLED
Chain of PKCβ (P05771 whole entry, species assumed): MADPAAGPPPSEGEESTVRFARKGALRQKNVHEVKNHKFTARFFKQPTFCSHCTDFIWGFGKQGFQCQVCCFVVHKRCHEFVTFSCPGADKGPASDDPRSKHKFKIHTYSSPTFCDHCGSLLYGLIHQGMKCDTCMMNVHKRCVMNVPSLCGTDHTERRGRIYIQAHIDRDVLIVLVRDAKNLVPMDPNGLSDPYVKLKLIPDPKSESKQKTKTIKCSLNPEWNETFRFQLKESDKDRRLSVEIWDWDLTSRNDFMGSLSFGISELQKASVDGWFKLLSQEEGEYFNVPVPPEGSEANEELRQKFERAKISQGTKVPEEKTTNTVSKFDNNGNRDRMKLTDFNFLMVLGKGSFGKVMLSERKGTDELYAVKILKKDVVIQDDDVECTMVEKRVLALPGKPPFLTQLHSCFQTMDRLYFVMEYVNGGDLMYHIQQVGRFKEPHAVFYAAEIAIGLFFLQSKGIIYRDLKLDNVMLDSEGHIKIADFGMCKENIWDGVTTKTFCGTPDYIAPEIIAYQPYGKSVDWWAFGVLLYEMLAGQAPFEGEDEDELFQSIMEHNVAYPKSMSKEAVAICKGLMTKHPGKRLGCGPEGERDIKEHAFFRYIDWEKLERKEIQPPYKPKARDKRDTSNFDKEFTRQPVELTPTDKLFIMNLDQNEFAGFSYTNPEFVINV

CN1CCN(c2cccc3[nH]c(-c4n[nH]c5cc(-c6ccc(N)cc6)ccc45)nc23)CC1 [Chemical Formula IX]
increase of maximal rate of contraction (cardiac myocytes): ≥ 2 times | increase of maximal rate of relaxation (cardiac myocytes): ≥ 2 times | increased maximal myocardial contractility as compared to the normal group (cardiac myocytes): about 2.4 times

CCOC(=O)c1c(NC(C)=O)sc(/C(C)=N/O)c1-c1ccccc1 [Chemical Formula II, ethyl (5E)-2-acetylimino-5-[1-(hydroxyamino)ethylidene]-4-phenyl-thiophene-3-carboxylate]
IC50 (PKCδ): > 100 µM | IC50 (PKCβ): > 100 µM

CN1CCN(Cc2c3ccccc3cc3ccccc23)CC1 [Chemical Formula III, 1-(anthracen-9-ylmethyl)-4-methyl-piperazine]
IC50 (PKCζ): 25 µM | IC50 (PKCδ): > 100 µM | IC50 (PKCβ): 50 µM

CN1CCN(c2cccc3[nH]c(-c4n[nH]c5cc(-c6ccc(CN)cc6)ccc45)nc23)CC1 [Chemical Formula X]
increase of maximal rate of contraction (cardiac myocytes): 1.2 times | increase of maximal rate of relaxation (cardiac myocytes): 1.2 times | increased maximal myocardial contractility as compared to the normal group (cardiac myocytes): about 1.4 times

CCOC(=O)c1c(NC(=S)N2CCN(S(C)(=O)=O)CC2)sc(C)c1-c1ccccc1 [Chemical Formula IV]
inhibitory effect relative to that of the compound of Chemical Formula II (PKCζ; tested at 100 μM): about 1.2 times
